Experimental data published in ChEMBL document CHEMBL1201862, “PubChem BioAssay data set” (2004).
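Dose response: 5 concentrations. Exposure: 48 h. Format: 96-well plates. Endpoint: linear interpolation; highest concentration if not reached. Here, GI50 denotes the concentration required for 50% inhibition of growth.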 Calls of active or inactive are those of the source. No stated cut-off is given here; in the data, active = GI50 up to about 1.1 µM and inactive = higher. *1 amine or outer side, *2 acyl side, *3 side chain or, on linkers, in order; H or OH if unused. Where a SMILES comes first, the peptide text is derived from it. Bridges are numbered along the chain shown (N, C = ends). Roman numbers before positions name the chains, in order. [ ]: non-standard residue; d: D form. Actinocin(9to1) = Cc1c2oc3c(C)ccc(C(=O)[*:1])c3nc-2c(C(=O)[*:2])c(N)c1=O; NMeV = CN[CH](C(=O)O)C(C)C; Sar = CNCC(=O)O

Assays:
Experiment in all cases: DTP human tumour cell line panel, 48 h
[1] = test system: DU-145
[2] = test system: SW-620
[3] = test system: HCT-116
[4] = test system: TK-10
[5] = test system: T47D
[6] = test system: BT-549
[7] = test system: MDA-MB-231
[8] = test system: SR
[9] = test system: MDA-MB-435
[10] = test system: SNB-19
[11] = test system: PC-3
[12] = test system: Hs-578T
[13] = test system: MDA-N
[14] = test system: MCF7
[15] = test system: EKVX
[16] = test system: M14
[17] = test system: MOLT-4
[18] = test system: HOP-92

Row | Structure (SMILES) | GI50 [1] | GI50 [2] | GI50 [3] | GI50 [4] | GI50 [5] | GI50 [6] | GI50 [7] | GI50 [8] | GI50 [9] | GI50 [10] | GI50 [11] | GI50 [12] | GI50 [13] | GI50 [14] | GI50 [15] | GI50 [16] | GI50 [17] | GI50 [18]
1 | CC(C)N(C(=O)C1(O)c2ccccc2C=Cc2ccccc21)C(C)C | 17.9 µM (inactive) | 17.3 µM (inactive) | 17.5 µM (inactive) | 18 µM (inactive) | 16.6 µM (inactive) | 18.8 µM (inactive) | 15.7 µM (inactive) | 23.3 µM (inactive) | 30.1 µM (inactive) | 19.9 µM (inactive) | 15.5 µM (inactive) | 45.9 µM (inactive) | 19.3 µM (inactive) | 17.3 µM (inactive) | 16.6 µM (inactive) | 19 µM (inactive) | 23.7 µM (inactive) | 
2 | Nn1c(S)nnc1COc1cccc(OCc2nnc(S)n2N)c1 | > 100 µM (inactive) | 40 µM (inactive) | > 100 µM (inactive) | > 100 µM (inactive) | > 100 µM (inactive) | > 100 µM (inactive) | > 100 µM (inactive) | 2.45 µM (inactive) | > 100 µM (inactive) | > 100 µM (inactive) | > 100 µM (inactive) | > 100 µM (inactive) | > 100 µM (inactive) | 75 µM (inactive) | > 100 µM (inactive) | > 100 µM (inactive) | 3.13 µM (inactive) | > 100 µM (inactive)
3 | Oc1cccc(-c2nc3ccccc3s2)c1 | 38.7 µM (inactive) | 57.9 µM (inactive) | 33 µM (inactive) |  | 10.2 µM (inactive) | 33 µM (inactive) | 22.1 µM (inactive) | 29.2 µM (inactive) | 30.7 µM (inactive) | 67.3 µM (inactive) | 23.2 µM (inactive) | 15.5 µM (inactive) | 27.8 µM (inactive) | 16.4 µM (inactive) | 5.69 µM (inactive) | 23.2 µM (inactive) | 24.2 µM (inactive) | 25.5 µM (inactive)
4 | FC(F)(F)c1ccc(/N=N/N2CCCC2)cc1 | > 100 µM (inactive) | > 100 µM (inactive) | > 100 µM (inactive) | > 100 µM (inactive) | 23.6 µM (inactive) | > 100 µM (inactive) | > 100 µM (inactive) | 68.7 µM (inactive) | > 100 µM (inactive) | > 100 µM (inactive) | > 100 µM (inactive) | > 100 µM (inactive) | > 100 µM (inactive) | > 100 µM (inactive) | > 100 µM (inactive) | > 100 µM (inactive) | > 100 µM (inactive) | 80 µM (inactive)
5 | C[N+](C)(C)c1ncnc2c1ncn2C1CC(O)C(CO)O1 (configuration not stated) | > 100 µM (inactive) | > 100 µM (inactive) | > 100 µM (inactive) | > 100 µM (inactive) | > 100 µM (inactive) | > 100 µM (inactive) | > 100 µM (inactive) | > 100 µM (inactive) | > 100 µM (inactive) | > 100 µM (inactive) | > 100 µM (inactive) | > 100 µM (inactive) | > 100 µM (inactive) | > 100 µM (inactive) | > 100 µM (inactive) | > 100 µM (inactive) | > 100 µM (inactive) | > 100 µM (inactive)
6 | COc1ccc(CC2COc3cc(O)cc(O)c3C2=O)cc1O (configuration not stated) | 9.48 µM (inactive) | 3.56 µM (inactive) |  | 15.4 µM (inactive) | 3.99 µM (inactive) | 82.2 µM (inactive) | 6.49 µM (inactive) | 1.03 µM (active) | 1.32 µM (inactive) | 4.83 µM (inactive) | 7.08 µM (inactive) | 2.4 µM (inactive) | 1.47 µM (inactive) | 6.21 µM (inactive) | > 100 µM (inactive) | 3.86 µM (inactive) | 4.3 µM (inactive) | 22.3 µM (inactive)
7 | CC1OC1C(=O)P(=O)(O)O (configuration not stated) | > 100 µM (inactive) | > 100 µM (inactive) | > 100 µM (inactive) | > 100 µM (inactive) | > 100 µM (inactive) | > 100 µM (inactive) | > 100 µM (inactive) | > 100 µM (inactive) | > 100 µM (inactive) | > 100 µM (inactive) | > 100 µM (inactive) | > 100 µM (inactive) | > 100 µM (inactive) | > 100 µM (inactive) | > 100 µM (inactive) | > 100 µM (inactive) | > 100 µM (inactive) | > 100 µM (inactive)
8 | Cc1c2oc3c(C)ccc(C(=O)NC4C(=O)NC(C(C)O)C(=O)N5CCCC5C(=O)N(C)CC(=O)N(C)C(C(C)C)C(=O)OC4C)c3nc-2c(C(=O)NC2C(=O)NC(C(C)O)C(=O)N3CCCC3C(=O)N(C)CC(=O)N(C)C(C(C)C)C(=O)OC2C)c(N)c1=O (configuration not stated) (I: TTP[Sar][NMeV] / II: TTP[Sar][NMeV]; ester I:1-I:C, II:1-II:C; linker I:N-II:N via Actinocin(9to1); configuration not given here) | 1.32 µM (inactive) | 0.067 µM (active) | 0.0456 µM (active) | 0.643 µM (active) | 0.184 µM (active) | 0.0155 µM (active) | 3.76 µM (inactive) | < 0.01 µM (active) | 0.413 µM (active) | 0.147 µM (active) | 1.06 µM (active) | 1.41 µM (inactive) | 1.08 µM (active) | 0.0507 µM (active) |  | 0.811 µM (active) | 0.0527 µM (active) | 
9 | COc1cccc(/C=C2/S/C(=N/Nc3nc(C)c(C(C)=O)s3)NC2=O)c1O | 34.4 µM (inactive) | 29.2 µM (inactive) | 30.7 µM (inactive) | 27.6 µM (inactive) | 23.3 µM (inactive) | 28.9 µM (inactive) | 18.9 µM (inactive) | 27.7 µM (inactive) | 30.5 µM (inactive) | 38 µM (inactive) | 25.9 µM (inactive) | 57.8 µM (inactive) | 31.7 µM (inactive) | 32.6 µM (inactive) | 24.9 µM (inactive) | 32.8 µM (inactive) |  | 28.9 µM (inactive)
10 | COC1OC2COC1(OC)C1OC(C)(C)OC21 (configuration not stated) | > 100 µM (inactive) | > 100 µM (inactive) | > 100 µM (inactive) | > 100 µM (inactive) | > 100 µM (inactive) | > 100 µM (inactive) | > 100 µM (inactive) | > 100 µM (inactive) | > 100 µM (inactive) | > 100 µM (inactive) | > 100 µM (inactive) | > 100 µM (inactive) | > 100 µM (inactive) | > 100 µM (inactive) | > 100 µM (inactive) | > 100 µM (inactive) | > 100 µM (inactive) | 
11 | COc1ccc2nc3cc(Cl)ccc3c(NCCCCCC(=O)NC(COc3ccc4ccc5cccnc5c4n3)COc3ccc4ccc5cccnc5c4n3)c2c1 | 11.5 µM (inactive) | 12 µM (inactive) | 8.24 µM (inactive) | 18.1 µM (inactive) | 20.1 µM (inactive) | 1.67 µM (inactive) | 19.4 µM (inactive) | 3.14 µM (inactive) | 38.6 µM (inactive) | 45.5 µM (inactive) | 15.2 µM (inactive) | 29 µM (inactive) | 23 µM (inactive) | 2.23 µM (inactive) | 24.8 µM (inactive) | 26.7 µM (inactive) | 0.527 µM (active) | 24.4 µM (inactive)
12 | CC/N=C(\N)CSS(=O)(=O)O | > 100 µM (inactive) | > 100 µM (inactive) | > 100 µM (inactive) | > 100 µM (inactive) | > 100 µM (inactive) | > 100 µM (inactive) | > 100 µM (inactive) | 36.5 µM (inactive) | > 100 µM (inactive) | > 100 µM (inactive) | > 100 µM (inactive) | > 100 µM (inactive) | > 100 µM (inactive) | > 100 µM (inactive) | > 100 µM (inactive) | > 100 µM (inactive) | 34.6 µM (inactive) | > 100 µM (inactive)
13 | N=C(N)NCC(N)C(=O)O (configuration not stated) | > 100 µM (inactive) | > 100 µM (inactive) | > 100 µM (inactive) | > 100 µM (inactive) | > 100 µM (inactive) | > 100 µM (inactive) | > 100 µM (inactive) | > 100 µM (inactive) | > 100 µM (inactive) | > 100 µM (inactive) | > 100 µM (inactive) | > 100 µM (inactive) | > 100 µM (inactive) | > 100 µM (inactive) | > 100 µM (inactive) | > 100 µM (inactive) |  | > 100 µM (inactive)
14 | CCNC(=S)N/N=C/c1ccccn1 | 7.13 µM (inactive) | 6 µM (inactive) | 8.93 µM (inactive) | 25.2 µM (inactive) | 1.98 µM (inactive) | 20.9 µM (inactive) | 7.05 µM (inactive) | > 100 µM (inactive) | 16.3 µM (inactive) | 19.6 µM (inactive) | 6.95 µM (inactive) | > 100 µM (inactive) | 27.7 µM (inactive) | 3.27 µM (inactive) | 4.54 µM (inactive) | 9.4 µM (inactive) | 1.58 µM (inactive) | 
15 | O=[N+]([O-])c1ccc(C2=NOC(c3ccccc3F)N2C23CC4CC(CC(C4)C2)C3)cc1 (configuration not stated) | > 100 µM (inactive) | > 100 µM (inactive) | > 100 µM (inactive) | > 100 µM (inactive) | > 100 µM (inactive) | > 100 µM (inactive) | > 100 µM (inactive) | > 100 µM (inactive) | > 100 µM (inactive) |  | > 100 µM (inactive) | > 100 µM (inactive) | > 100 µM (inactive) | > 100 µM (inactive) | > 100 µM (inactive) | > 100 µM (inactive) | > 100 µM (inactive) | 7.43 µM (inactive)
16 | CN(C)CC1CCC/C(=C\c2ccccc2)C1=O (configuration not stated) | 15.3 µM (inactive) | 1.55 µM (inactive) | 1.56 µM (inactive) | 2.36 µM (inactive) | 2.12 µM (inactive) | 7.69 µM (inactive) | 1.98 µM (inactive) | 0.944 µM (active) | 1.78 µM (inactive) | 16.2 µM (inactive) | 8.49 µM (inactive) | 2.77 µM (inactive) | 2.99 µM (inactive) | 0.575 µM (active) | 17.9 µM (inactive) |  | 4.6 µM (inactive) | 2.44 µM (inactive)
